# Data taken from patent publication US9265755B2, “Stem cell administration to reduce TNF-α level in CSF of an autism spectrum disorder or pervasive development disorder patient” (priority 2009, dated 2016).
# Entries after “also recorded” stand apart in the source; their conditions may differ.
# How the values were obtained:
# [1] = test system: test subjects with autism spectrum condition; assay: L-Carnosine in test subjects with autism spectrum condition (language, CARS); assay type: in vivo, human
# [2] = test system: Interleukin-1β; assay: Serum Interleukin-1β levels with lenalidomide outside of the study; assay type: in vivo, human; conditions: 2.5 to 10 mg; 2 subjects; 12 to 24 weeks of therapy
# [3] = test system: patients diagnosed with an autism spectrum condition; assay: Clinical language, social skills, CARS and EEG outcome in the lenalinomide study; assay type: in vivo, human
# [4] = test system: TNF-α; assay: TNF-α levels in CSF and serum of autism spectrum patients treated with lenalinomide; assay type: in vivo, human
# [5] = test system: autism spectrum subjects; assay: Clinical improvement with lenalidomide outside of the study; assay type: in vivo, human; conditions: 2.5 to 10 mg; four subjects outside of the study
# [6] = test system: patients with autistic regression and abnormal EEG; assay: Thalidomide in patients with autistic regression and abnormal EEG
# [7] = test system: patient with co-morbid autism condition and inflammatory colitis; assay: Co-morbid autism condition in a single patient treated with infliximab; assay type: in vivo, human; conditions: in just days of treatment
# Source text: This patient regressed and became autistic […] with the onset of their inflammatory colitis condition becoming clinically obvious at a later date.
# [8] = after 4 to 12 weeks off the medication
# [9] = 2.5 mg per day, in 6 to 12 weeks, four patients with TNF-α CSF elevation over serum levels
# [10] = 25 to 50 mg per day for 2 to 4 months, six patients
compound,measurement,setting,value
NCCC(=O)N[C@@H](Cc1cnc[nH]1)C(=O)O [L-Carnosine],"language function, receptive one word vocabulary testing scores","[1]; 800 mg per day, after 6 and 12 weeks of treatment, compared to placebo",improvement
same,CARS scores,"[1]; 800 to 1000 mg, over 8 weeks",CARS scores improvement
same,language,"[1]; 800 to 1000 mg, over 8 weeks",language improvement
Nc1cccc2c1CN(C1CCC(=O)NC1=O)C2=O (stereo not shown) [Lenalinomide],Interleukin-1β levels in serum,[2],lower
same,EEG in patients with abnormal EEG,[3]; 2.5 mg per day,showed improvement; also recorded: may have improved
same,patients with elevated TNF-α levels in CSF and serum improved over baseline clinically,[3]; 2.5 mg per day (4/6 of completed study),four out of four
same,CGI rating scale for language expression,"[3]; 2.5 mg per day, FIG. 2a",Improvement
same,CGI rating scale for receptive language,"[3]; 2.5 mg per day, FIG. 2b",Improvement
same,CGI rating scale for social skills,"[3]; 2.5 mg per day, FIG. 3",Improvement
same,"neuropsychological testing, receptive one-word test","[3]; 2.5 mg per day, FIG. 4a",Improvement
same,"neuropsychological testing, expressive one-word test","[3]; 2.5 mg per day, FIG. 4b",Improvement
same,Childhood Autism Rating Scale Scores (CARS),"[3]; 2.5 mg per day, four patients",improved
same,language skills,"[3]; 2.5 mg per day, four patients",improved
same,social skills,"[3]; 2.5 mg per day, four patients",improved
same,skills after withdrawal of the medication,[3]; [8],regressed
same,clinical state when medication was re-introduced,"[3]; re-introduced at 2.5 to 5 mg per day, three patients",improved
same,levels of TNF-α in CSF,[4]; [9],lowered levels
same,levels of TNF-α in serum,[4]; [9],lowered levels
same,TNF-α levels in serum after withdrawal of the medication,[4]; [8],increased
same,CSF and serum ratios of TNF-α and other inflammatory cytokines,[4]; when TNF-α is elevated in an inflammatory response,lowering
same,clinical improvement,[5],great clinical improvement
O=C1CCC(N2C(=O)c3ccccc3C2=O)C(=O)N1 (stereo not shown) [Thalidomide],EEG,[6]; [10],improved
same,clinical global improvement,[6]; [10],clinical global improvement occurred
same,clinical state of patients with autistic regression and abnormal EEG,[6]; patients who previously showed immune partial response to oral or injectable corticosteroids,improvement
Infliximab,co-morbid autism condition,[7],improvement
